Results on six compounds are retold here after patent publication US4975538A, “Antibiotic sulfonylaminocarbonyl activated beta-lactams” (The Upjohn Company, priority 1989, dated 1990).

Each structure is given as a SMILES string. Values after ≈ are worked out from the molar mass of the structure shown. A value given as a limit tells only on which side of the number the result lay.

The MIC is the least concentration at which growth counts as inhibited. A low value points to a more susceptible organism.

Holding throughout (assay): Minimum Inhibitory Concentration (MIC), agar dilution in Mueller Hinton Agar
What all share (type): cell-based

Assay [1] relates to Klebsiella Pneumoniae. Conditions: 20 h, culture number 58. As to the method: (§1) The compounds of this invention and their respective pharmaceutically acceptable salts have antibiotic activity against a variety of gram-negative bacteria including Escherichia coli, Klebsiella pneumoniae, and Pseudomonas aeruginosa. The compounds are useful for treating bacterial infections in animals, including and most preferably humans. Compounds of the invention are tested for in vitro antimicrobial activity using standard testing procedures such as the determination of minimum inhibitory concentration (MIC) by methods described in "Methods for Dilution Antimicrobial Susceptibility Tests for Bacteria That Grow Aerobically" (M7-A) Published December 1985 by the National Committee for Clinical Laboratory Standards, 771 East Lancaster Avenue, Villanova, Pa. 19084. Briefly, MIC values are determined in unsupplemented Mueller Hinton Agar (MHA). The compounds tested are diluted serially into molten MHA at 47° C. The agar is poured into petri dishes and allowed to harden. The various bacteria used for testing are grown overnight on MHA at 35° C. and transferred to Tryptiease Soy Broth (TSB) until a turbidity of 0.5 McFarland standard is obtained. The bacteria are diluted one to twenty in TSB and inoculated on the plates (1 μl using a Steers replicator).

Assay [2] deals with Citrobacter Freundli. Conditions: 20 h, culture number 3507. As to the method:
as §1

In assay [3] the test system is Enterobacter Cloacae. Conditions: 20 h. As to the method:
as §1

For assay [4], the system named is Staphylococcus epidermidis. The conditions noted are these: 20 h, culture number 30031. As to the method:
as §1

Assay [5] concerns Klebsiella Oxytoca. The conditions noted are these: 20 h. As to the method:
as §1

Assay [6] has as its system Pseudomonas Aeruginosa. Conditions: 20 h. As to the method: as §1
The subject of assay [7] is Serratia Marcescens. Conditions: 20 h, culture number 6888. As to the method:
as §1

In assay [8] the test system is Escherichia Coli. The conditions noted are these: 20 h. As to the method:
as §1

Assay [9] has as its system Proteus Vulgaris. The conditions noted are these: 20 h, culture number 9679. As to the method: as §1
The test system of assay [10] is Staphylococcus Aureus. Conditions: 20 h. As to the method:
as §1

The test system of assay [11] is Streptococcus Faecalis. The conditions noted are these: Enterococcus faecalis, 20 h; culture number 694. As to the method:
as §1

In assay [12] the test system is Streptococcus Pyogenes. Conditions: 20 h, culture number 152. As to the method: as §1
The subject of assay [13] is Streptococcus Pneumoniae. Conditions: 20 h, culture number 41. As to the method: as §1

Turning to `Nc1nc(/C(=N/OCC(=O)O)C(=O)N[C@H]2CN(C(=O)NS(=O)(=O)N3CCN(NC(=O)c4[nH]ccc(=O)c4O)C3=O)C2=O)cs1` [Compound E40, Acetic acid, [[[1-(2-amino-4-thiazolyl)-2-[[1-[[[[3-[[(1,4-dihydro-3-hydroxy-4-oxo-2-pyridinyl)carbonyl]amino]-2-oxo-1-imidazolidinyl]sulfonyl]-amino]carbonyl]-2-oxo-3-azetidinyl]amino]-2-oxoethylidene]amino]oxy]-, [S-(Z)]-], the MIC in assay [1] is 0.5 µg/mL (≈ 0.762 µM); in [2], 0.25 µg/mL (≈ 0.381 µM); in [3] (culture number 9381), 64 µg/mL (≈ 97.5 µM); in [3] (culture number 9382), 1 µg/mL (≈ 1.52 µM); in [4], above 64 µg/mL; in [5] (culture number 9383), 2 µg/mL (≈ 3.05 µM). In addition, the MIC was found to be 0.5 µg/mL (≈ 0.762 µM) in assay [5] (culture number 9384); 64 µg/mL (≈ 97.5 µM) in assay [6] (culture number 231); 64 µg/mL (≈ 97.5 µM) in assay [6] (culture number 9191); 2 µg/mL (≈ 3.05 µM) in assay [7]; 0.5 µg/mL (≈ 0.762 µM) in assay [8] (culture number 9379); 1 µg/mL (≈ 1.52 µM) in assay [8] (culture number 9380). The MIC was 0.5 µg/mL (≈ 0.762 µM) in assay [8] (culture number 9451); 0.25 µg/mL (≈ 0.381 µM) in assay [9]; above 64 µg/mL in assay [10] (culture number 3665); above 64 µg/mL in assay [10] (culture number 6685); above 64 µg/mL in [10] (culture number 9213); above 64 µg/mL in assay [10] (culture number 9218). Also, the MIC in assay [11] was above 64 µg/mL; in [12], 64 µg/mL (≈ 97.5 µM); in [13], above 64 µg/mL.

As for `CC(C)(O/N=C(\C(=O)N[C@H]1CN(C(=O)NS(=O)(=O)N2CCN(NC(=O)c3ccn(O)c(=O)c3)C2=O)C1=O)c1csc(N)n1)C(=O)O` [E42 (d), Propanoic acid, 2-[[[1-(2-amino-4-thiazolyl)-2-[[1-[[[[3-[[(1,2-dihydro-1-hydroxy-2-oxo-4-pyridinyl)carbonyl]amino]2-oxo-1-imidazolidinyl]sulfonyl]amino]carbonyl]-2-oxo-3-azetidinyl]amino]-2-oxoethylidene]amino]oxy]-2-methyl-, [S-(Z)]-], the MIC is 0.25 µg/mL (≈ 0.365 µM) in assay [1]; 0.25 µg/mL (≈ 0.365 µM) in assay [2]; 64 µg/mL (≈ 93.5 µM) in [3] (culture number 9381); 0.5 µg/mL (≈ 0.73 µM) in assay [3] (culture number 9382); 4 µg/mL (≈ 5.84 µM) in [5] (culture number 9383); 0.25 µg/mL (≈ 0.365 µM) in assay [5] (culture number 9384). Further, the minimal inhibitory concentration (MIC) in assay [6] (culture number 231) came out at 1 µg/mL (≈ 1.46 µM); in [6] (culture number 9191), 1 µg/mL (≈ 1.46 µM); in assay [7], 0.5 µg/mL (≈ 0.73 µM); in [8] (culture number 9379), 0.25 µg/mL (≈ 0.365 µM); in assay [8] (culture number 9380), 0.25 µg/mL (≈ 0.365 µM); in assay [8] (culture number 9451), 0.125 µg/mL (≈ 0.183 µM). Also, the minimum inhibitory concentration (MIC) in [9] was 0.03 µg/mL (≈ 0.0438 µM); in [10] (culture number 3665), above 64 µg/mL; in [10] (culture number 6685) it was above 64 µg/mL; in assay [10] (culture number 9218) it was above 64 µg/mL; in assay [11], above 64 µg/mL; in [12] it was 4 µg/mL (≈ 5.84 µM). Besides, the lowest concentration to inhibit growth in assay [13] (MIC) was 64 µg/mL (≈ 93.5 µM).

For the compound `CC(C)(O/N=C(\C(=O)N[C@H]1CN(C(=O)NS(=O)(=O)N2CCN(C(=O)c3cc(=O)c(O)c[nH]3)NC2=O)C1=O)c1csc(N)n1)C(=O)O` [Compound E18, Propanoic acid, 2-[[[1-(2-amino-4-thiazolyl)-2-[[1-[[[[1-[(1,4-dihydro-5-hydroxy-4-oxo-2-pyridinyl)carbonyl]tetrahydro-3-oxo-1,2,4-triazin-4(1H)-yl]sulfonyl]amino]carbonyl]-2-oxo-3-azetidinyl]amino]-2-oxoethylidene]amino]oxy]-2-methyl-[S-(Z)]-], the MIC in assay [1] worked out at 0.5 µg/mL (≈ 0.73 µM); in [2], 0.06 µg/mL (≈ 0.0876 µM); in assay [3] (culture number 9381) it was 16 µg/mL (≈ 23.4 µM); in [3] (culture number 9382), 1 µg/mL (≈ 1.46 µM); in assay [5] (culture number 9383), 0.125 µg/mL (≈ 0.183 µM); in assay [5] (culture number 9384), 0.03 µg/mL (≈ 0.0438 µM). The minimal inhibitory concentration (MIC) in assay [6] (culture number 231) is 0.25 µg/mL (≈ 0.365 µM); in assay [6] (culture number 9191) it was 0.125 µg/mL (≈ 0.183 µM); in [7], 0.06 µg/mL (≈ 0.0876 µM); in assay [8] (culture number 9379), below 0.008 µg/mL; in assay [8] (culture number 9380), below 0.008 µg/mL; in [8] (culture number 9451) it was below 0.008 µg/mL. Besides, the MIC was 0.06 µg/mL (≈ 0.0876 µM) in assay [9]; above 64 µg/mL in assay [10] (culture number 3665); above 64 µg/mL in assay [10] (culture number 6685); above 64 µg/mL in assay [10] (culture number 9218); above 64 µg/mL in [11]; 16 µg/mL (≈ 23.4 µM) in [12]. The compound further came in with an MIC in assay [13] above 64 µg/mL.

Consider `CC(C)(O/N=C(\C(=O)N[C@H]1CN(C(=O)NS(=O)(=O)N2CCN(C(=O)c3cc(=O)c(O)c[nH]3)CC2=O)C1=O)c1csc(N)n1)C(=O)O` [Compound E17], for which the minimum inhibitory concentration (MIC) in assay [1] was determined as 1 µg/mL (≈ 1.46 µM); in assay [2], 0.25 µg/mL (≈ 0.366 µM); in [3] (culture number 9381) it was 64 µg/mL (≈ 93.6 µM); in [3] (culture number 9382), 1 µg/mL (≈ 1.46 µM); in assay [5] (culture number 9383), 0.5 µg/mL (≈ 0.731 µM); in assay [5] (culture number 9384), 0.125 µg/mL (≈ 0.183 µM). Besides, the MIC is 0.5 µg/mL (≈ 0.731 µM) in assay [6] (culture number 231); 0.5 µg/mL (≈ 0.731 µM) in [6] (culture number 9191); 0.125 µg/mL (≈ 0.183 µM) in assay [7]; 0.015 µg/mL (≈ 0.0219 µM) in assay [8] (culture number 9379); below 0.008 µg/mL in [8] (culture number 9380); 0.015 µg/mL (≈ 0.0219 µM) in [8] (culture number 9451). The minimum inhibitory concentration (MIC) in assay [9] was 0.25 µg/mL (≈ 0.366 µM); in assay [10] (culture number 3665), above 64 µg/mL; in assay [10] (culture number 6685), above 64 µg/mL; in assay [10] (culture number 9218), above 64 µg/mL; in assay [11], above 64 µg/mL; in assay [12] it was 16 µg/mL (≈ 23.4 µM). For the same compound, the MIC in assay [13] was above 64 µg/mL.

In the case of `Cn1c(-c2cc(=O)c(O)c[nH]2)nn(S(=O)(=O)NC(=O)N2C[C@H](NC(=O)/C(=N\OC(C)(C)C(=O)O)c3csc(N)n3)C2=O)c1=O` [E23 (b)], the minimal inhibitory concentration (MIC) in assay [1] was 0.25 µg/mL (≈ 0.382 µM); in assay [2], 0.03 µg/mL (≈ 0.0458 µM); in assay [3] (culture number 9381), 4 µg/mL (≈ 6.11 µM); in assay [3] (culture number 9382), 0.5 µg/mL (≈ 0.764 µM); in assay [5] (culture number 9383), 0.03 µg/mL (≈ 0.0458 µM); in [5] (culture number 9384), 0.03 µg/mL (≈ 0.0458 µM). Further, the MIC in assay [6] (culture number 231) is 0.125 µg/mL (≈ 0.191 µM); in assay [6] (culture number 9191), 0.25 µg/mL (≈ 0.382 µM); in assay [7], 0.015 µg/mL (≈ 0.0229 µM); in assay [8] (culture number 9379) it was below 0.008 µg/mL; in [8] (culture number 9380), below 0.008 µg/mL; in assay [8] (culture number 9451) it was below 0.008 µg/mL. Besides, the minimum inhibitory concentration (MIC) in assay [9] is 0.03 µg/mL (≈ 0.0458 µM); in assay [10] (culture number 3665), above 64 µg/mL; in [10] (culture number 6685), above 64 µg/mL; in assay [10] (culture number 9218), above 64 µg/mL; in assay [11], above 64 µg/mL; in [12] it was 16 µg/mL (≈ 24.4 µM). Moreover, the MIC in [13] is above 64 µg/mL.

Regarding `CCCCn1cc(O)c(=O)cc1C(=O)NN1CCN(S(=O)(=O)NC(=O)N2C[C@H](NC(=O)/C(=N\OC(C)(C)C(=O)O)c3csc(N)n3)C2=O)C1=O` [E42 (b), Propanoic acid, 2-[[[1-(2-amino-4-thiazolyl)-2-[[1-[[[[3-[[(1-butyl-1,4-dihydro-5-hydroxy-4-oxo-2-pyridinyl)carbonyl]amino]-2-oxo-1-imidazolidinyl]sulfonyl]amino]carbonyl]-2-oxo-3-azetidinyl]amino]-2-oxoethylidene]amino]oxy]-2-methyl-, [S-(Z)]-], the minimal inhibitory concentration (MIC) in assay [1] was 0.5 µg/mL (≈ 0.675 µM); in assay [2], 2 µg/mL (≈ 2.7 µM); in assay [3] (culture number 9381), above 64 µg/mL; in assay [3] (culture number 9382), 1 µg/mL (≈ 1.35 µM); in assay [5] (culture number 9383) it was 4 µg/mL (≈ 5.4 µM); in assay [5] (culture number 9384), 0.25 µg/mL (≈ 0.338 µM). Further, the minimal inhibitory concentration (MIC) in assay [6] (culture number 231) is above 64 µg/mL; in assay [6] (culture number 9191), 64 µg/mL (≈ 86.4 µM); in assay [7], 1 µg/mL (≈ 1.35 µM); in assay [8] (culture number 9379) it was 0.5 µg/mL (≈ 0.675 µM); in assay [8] (culture number 9380), 0.25 µg/mL (≈ 0.338 µM); in [8] (culture number 9451), 0.5 µg/mL (≈ 0.675 µM). Further, the minimal inhibitory concentration (MIC) in assay [9] was 0.25 µg/mL (≈ 0.338 µM); in [10] (culture number 3665) it was above 64 µg/mL; in [10] (culture number 6685), above 64 µg/mL; in assay [10] (culture number 9218), above 64 µg/mL; in assay [11] it was above 64 µg/mL; in [12], 16 µg/mL (≈ 21.6 µM). For the same compound, the minimal inhibitory concentration (MIC) in assay [13] is above 64 µg/mL.
